Experimental data published in publication PMC12049818, “Identification of NUV-244 as a PNPLA3 I148M degrading small molecule” (iScience, 2025).
Like-named read-outs stand apart in the source and are kept apart here.

Legend:
[1] = molecular target: T1, PNPLA3 I148M-tagRFP (Homo sapiens, UniProt Q9NST1, I148M); test: Huh7 PNPLA3 I148M-tagRFP reduction on lipid droplets (high-content imaging); assay type: cell-based
T1 construct: host or cells: Huh7
T1 sequence (Q9NST1 1-481 I148M): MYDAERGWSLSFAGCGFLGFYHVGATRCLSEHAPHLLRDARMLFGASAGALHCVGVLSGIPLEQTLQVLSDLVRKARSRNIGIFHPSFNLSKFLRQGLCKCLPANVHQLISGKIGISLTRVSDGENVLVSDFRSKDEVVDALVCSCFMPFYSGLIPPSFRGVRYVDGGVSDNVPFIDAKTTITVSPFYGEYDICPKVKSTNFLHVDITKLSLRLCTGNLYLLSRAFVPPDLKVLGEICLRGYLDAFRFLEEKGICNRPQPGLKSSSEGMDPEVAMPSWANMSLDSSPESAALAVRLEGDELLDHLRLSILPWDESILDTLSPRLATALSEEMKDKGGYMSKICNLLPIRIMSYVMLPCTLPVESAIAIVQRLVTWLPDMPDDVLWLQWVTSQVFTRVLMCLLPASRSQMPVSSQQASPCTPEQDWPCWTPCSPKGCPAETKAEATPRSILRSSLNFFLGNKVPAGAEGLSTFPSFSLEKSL
Protocol: For dose-response cells were seeded at 4000 c/30 μl per well in 384 well plates (Revvity, Waltham, MA, USA, PhenoPlate 384-well microplate, #6057308) and stored in a 37°C incubator with 5% CO2 and 95% humidity overnight. Compounds, serially diluted, and DMSO controls were added, and cells were incubated for another 24h. Cells were fixed and stained with a mixture of Paraformaldehyde (final 1%, Electron Microscopy Science), BODIPY (final 38 nM, Invitrogen) and Hoechst 33342 (final 2 μg/ml, Biotium) diluted in PBS for 30 min at room temperature in the dark (no wash off).
Confocal images were acquired using the Opera Phenix system (Revvity, USA) with a 10x, 20x or 40x water objective and excitation at 405 nm (Hoechst), 488 nm (BODIPY), and 532 nm (PNPLA3 I148M-tagRFP).
Images were analyzed using Harmony (Revvity) and MetaXpress software (Molecular Devices, USA) to quantify lipid droplet morphology and PNPLA3 I148M-tagRFP intensity.
Assay plates were evaluated based on Z’ scores (>0.6) and signal-to-background ratio (>12) using Genedata Screener® for HTS and Condoseo modules (Genedata, Switzerland). Normalization, quality control, and fitting curves for EC50 determination of tested compounds were performed with Genedata Screener® for high-content screening and Genedata Condoseo modules (Genedata AG, Basel, Switzerland). More than 820K cpds were screened on 791 1536W plates in 11 runs covering three weeks of primary HTS. Automated image analysis routines were set up to quantify the number, morphology and intensity of nuclei, lipid droplets and the intensity of PNPLA3 I148M-tagRFP on lipid droplets. Toxic or autofluorescent compounds were excluded from the hitlist based on nuclear count, area, and intensity measurements as well as lipid droplet staining intensity compared to control cells.

[2] = tested on: Huh7 cells expressing unmodified PNPLA3 I148M; test: Incucyte growth curves, Huh7 expressing PNPLA3 I148M; assay type: cell-based, human; settings: 1μM or 5μM
Protocol: Huh7, Huh7 PNPLA3 I148M, Huh7 PNPLA3, Hep3b and LX-2 cells were seeded at a concentration of 1000 cells/well in 60 μl of growth medium on 384-well microtiter plates (Revvity, Waltham, MA, USA, PhenoPlate 384-well microplate, #6057308) and stored in a 37°C incubator with 5% CO2 and 95% humidity overnight. Next day cells were treated with DMSO as control (1% final concentration) or compound (1μM or 5μM final concentration) and cell density was recorded in the Incucyte® life cell imager (Sartorius, Göttingen, Germany) every 4 hours over a period of 5 days. Growth curves were generated by monitoring confluence over time. Proliferative capacity of PNPLA3 I148M-expressing cells was compared to control cells, and the restoration of proliferative fitness was analyzed.

Cc1cccc(Cc2nc(C)c(C(=O)Nc3cc(O)ccc3Cl)s2)c1 [NUV-244]
EC50 ([1]; HTS batch (hit), 24h, two independent determinations, read-out: EC50 Huh7, PNPLA3 I148M-tagRFP reduction): 2.28e-07 ± 3.1e-08 M
EC50 ([1]; representative dose-response curve, Figure 2D, read-out: EC50 [M] Huh7, PNPLA3-I148M-tagRFP): 2.05e-07 M
EC50 ([1]; representative dose-response curve, Figure 3B, read-out: EC50 [M] Huh7, PNPLA3 I148M-tagRFP): 3.51e-07 M
EC50 ([1]; resynthesis, representative curve, Figure 4C, read-out: EC50 [M] Huh7, PNPLA3 I148M-tagRFP intensity on lipid droplets): 3.8e-07 M
proliferative fitness of Huh7 cells expressing PNPLA3 I148M [2]: restored
